Consider one molecule from patent US20050137222A1, “Treatment of insomnia in human patients” (H. Lundbeck A/S, priority 2003, published 2005).

The subject of experiment [1] is adult subjects with primary insomnia. Description: Polysomnograph (PSG) study in adult subjects with primary insomnia. In kind it is in vivo, human. As for the experimental part:
(§1) Effect is confirmed for short-term treatment in studies using acute treatment in healthy subjects exposed to a phase advance model. Assessment of effect on insomnia during intermediate term treatment duration is performed in primary insomnia subjects using treatment duration up to 4 weeks. Long term or chronic treatment is assessed in 12 month safety studies. Subject populations include primary insomnia subjects with age range 18-65 yrs (adults) and 65 and above (elderly).
(§2) Sleep maintenance is measured by either of parameters wakefulness after sleep onset, number of awakenings after sleep onset or total sleep time. […] In these studies, the effect was also confirmed by the subjects own feelings of the sleep initiation. Based both on PSG and on subjective diary recording, gaboxadol doses of 5 to 15 mg are highly preferred to achieve effect in adults and elderly (gaboxadol was administered from ½ hour before bedtime up to immediately before going to bed).

The test system of experiment [2] is healthy subjects exposed to a phase advance model. Put plainly: Phase advance model in healthy subjects (PSG and subjective recording). In kind it is in vivo, human. The procedure:
as §1, §2

The subject of a further experiment is human subjects. Description: EEG slow wave sleep and spectral analysis in the clinical studies. The following applies: similar effect range as for slow wave sleep. In kind it is in vivo. From the text: Moreover, gaboxadol induced a dose-dependent increase in duration of slow wave sleep (SWS), that is, stages 3 and 4, which is considered the deepest stage of sleep. The effect ranged between +15 and 46% compared to placebo.

Experiment [3] deals with adult (18-65 yrs) primary insomnia subjects. Put plainly: 3 week placebo controlled parallel group outpatient study of daytime performance (VAS, Sheehan disability scale). In kind it is in vivo, human. The following applies: doses 5, 10 and 15 mg, about ½ hour before bedtime; 3 weeks; effect more pronounced during week 2 and 3. The procedure:
The daytime performance (used interchangeably with daytime function) in adult (18-65 yrs) primary insomnia subjects (Diagnostic and Statistical Manual of Mental Disorders—Fourth Edition, […]) has been assessed in a 3 week placebo controlled parallel group, outpatient study. The performance was measured with standardized questions using a 100 point Visual Analogue Scale (VAS). The questions asked for subjects to report on their daytime ability to function, tiredness, energy and relaxedness. Subject responses were recorded in a diary in the evening on the day after each treatment night (gaboxadol was administered about ½ hour before bedtime). Moreover, daytime function was recorded once weekly using the Sheehan disability scale (Sheehan et al., 1996, “The measurement of disability,” International Clinical Psychopharmacology 11 (suppl. 3), 89-95).

The test system of the next experiment is animals. The following applies: cited from earlier work.
The next experiment has as its system healthy human subjects. The settings on record: cited from earlier work.

With `Oc1noc2c1CCNC2` [gaboxadol, 4,5,6,7-tetrahydroisoxazolo(5,4-c)pyridin-3-ol], the “sleep maintenance as measured by polysomnograph (wakefulness after sleep onset, number of awakenings after sleep onset or total sleep time)” value in experiment [1] (adult subjects with primary insomnia, oral, from ½ hour before bedtime up to bedtime) is recorded as “improves sleep maintenance”. Besides, the sleep initiation result in experiment [1] (primary insomnia subjects, confirmed by subjects' own feelings) is listed as “facilitated sleep initiation”. In experiment [2] (healthy subjects, phase advance model), the “sleep maintenance as measured by polysomnograph (wakefulness after sleep onset, number of awakenings after sleep onset or total sleep time)” value is on record as “improves sleep maintenance”. In addition, the “subjects' own perception of the sleep maintenance effect” value in experiment [2] (healthy subjects, phase advance model, subjective) was “decreased wakefulness”. Besides, the “lowest dose at which the sleep maintenance effect was observed” value in experiment [2] (oral, study not clearly specified in the text) is reported as “about 5 mg per day”. The sleep initiation result in experiment [2] (subjects in a phase advance model, confirmed by subjects' own feelings) is reported as “facilitated sleep initiation”. Moreover, the “slow wave activity in EEG spectral analysis” value in the experiment on human subjects is on record as “increase of slow wave activity”. For the same molecule, in experiment [3], the “daytime performance (weekly means of VAS questions and Sheehan disability scale)” value is “significantly improve daytime performance”. Further, the “nonREMS amount and nonREMS/REMS episode duration” value in the experiment on animals is “increasing total amount of nonREMS and lengthening the duration of the nonREMS and REMS episodes”. Also, in the experiment on healthy human subjects, the deep sleep entry was “promote deep sleep”, the “influence on REM sleep” value is on record as “no disrupting influence on REM sleep” and the sleep maintenance entry was “increase sleep maintenance”.
